Measured values published in ChEMBL document CHEMBL1201862, “PubChem BioAssay data set” (2004).
Active and inactive are the calls of the source.

Assays:
[1] = NIH:OVCAR-3 ovarian cancer cell cytotoxicity, dose response, PAX8 inhibitor project, plate reader, dry powder samples (AID 743044); assay type: functional, cell-based
[2] = non-specific cell cytotoxicity, dose response, cytotoxicity control for PAX8 inhibitor project, plate reader, dry powder samples (AID 743021); assay type: functional, cell-based
[3] = Shn3 3'UTR reporter inhibitors, dose response, cell-based, Clone20 osteoblasts, firefly luciferase, cherry-picked (AID 624132); assay type: functional;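 further: firefly luciferase luminescence from reporter carrying the Shn3 3'UTR in osteoblasts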
[4] = THP-1 cell cytotoxicity, dose response, cytotoxicity control for non-replicating M. tuberculosis project (AID 489025); assay type: functional
[5] = biological target: Intestinal-type alkaline phosphatase (Homo sapiens, UniProt P09923); experiment: human IAP activators, dose response, biochemical, luminescent, uHTS hits, set 2 (AID 488817); assay type: functional;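 further: potency of activators that raise enzyme activity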
Sequence of Intestinal-type alkaline phosphatase (P09923 whole entry): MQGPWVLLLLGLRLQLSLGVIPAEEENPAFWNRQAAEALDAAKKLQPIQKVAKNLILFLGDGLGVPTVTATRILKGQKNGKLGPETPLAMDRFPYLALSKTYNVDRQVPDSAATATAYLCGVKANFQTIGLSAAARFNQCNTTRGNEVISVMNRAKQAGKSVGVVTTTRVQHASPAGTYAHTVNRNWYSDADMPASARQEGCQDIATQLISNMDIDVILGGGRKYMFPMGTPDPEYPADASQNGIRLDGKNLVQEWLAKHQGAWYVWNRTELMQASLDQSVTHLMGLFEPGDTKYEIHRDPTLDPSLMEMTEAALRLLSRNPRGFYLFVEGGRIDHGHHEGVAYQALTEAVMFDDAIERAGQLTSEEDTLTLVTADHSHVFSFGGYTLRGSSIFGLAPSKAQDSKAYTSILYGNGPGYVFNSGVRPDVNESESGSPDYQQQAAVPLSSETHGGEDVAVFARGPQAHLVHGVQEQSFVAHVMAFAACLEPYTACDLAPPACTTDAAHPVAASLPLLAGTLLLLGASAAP

With `CCCCC(=O)NC(c1ccccc1)c1ccc2cccnc2c1O` (stereo not given) the AC50 [1] was 2450 nM (active), the AC50 [2] was 63300 nM (active) and the AC50 [3] was 2350 nM (active).
With `CC(=O)N(Cc1ccc(F)cc1)C1=C(NCCc2ccccc2)C(=O)c2ccccc2C1=O` the CC50 [4] was 670 nM (active).
With `O=C(/C=C/c1cccs1)NC(=S)NNC(=O)c1ccccc1O` the EC50 [5] was 11000 nM (active).
